The source of these data is US10221152B2 (priority 2013, dated 2019).

Experiment [1] concerns H1N1 T.R. (Tamiflu-resistant variant of H1N1 viral strain). In kind it is cell-based, Influenza A virus.
Experiment [2] deals with Tamiflu-resistant H1N1 viral strain rWSN^H274Y. In kind it is cell-based, Influenza A virus.

SMILES strings stand for the structures. Where a name gives a salt, the structure may show the parent alone.

Turning to `COc1c(C)c2c(c(O)c1C/C=C(\C)CCC(=O)OCCN1CCOCC1)C(=O)OC2` [MPM, 2-morpholinoethyl(E)-6-(1,3-dihydro-4-hydroxy-6-methoxy-7-methyl-3-oxo-5-isobenzofuranyl)-4-methyl-4-hexenoate], in experiment [1], the “Minimal Inhibitory Concentration (MIC), H1N1 T.R.” value was 0.39 µg/mL.
`COc1c(C)c2c(c(O)c1C/C=C(\C)CCC(=O)OCCN1CCOCC1)C(=O)OC2` [MPM-N, mycophenolate mofetil hydrochloride]: the “concentration required to inhibit rWSN^H274Y (immunofluorescence staining)” value in experiment [2] is 5 µM.
Same read-out and setting: then `NC(=O)c1ncn([C@@H]2O[C@H](CO)[C@@H](O)[C@H]2O)n1` [Ribavirin, reference compound], with 100 µM.
